{
  "source": "paper PMC3454389",
  "about": "“Mining the Sinorhizobium meliloti Transportome to Develop FRET Biosensors for Sugars, Dicarboxylates and Cyclic Polyols” (PLoS ONE, 2012)",
  "key": {"[1]": {"biological_target": "T1, RL2376-CY (Rhizobium leguminosarum, UniProt Q1MGQ3)", "T1 sequence (Q1MGQ3 24-320)": "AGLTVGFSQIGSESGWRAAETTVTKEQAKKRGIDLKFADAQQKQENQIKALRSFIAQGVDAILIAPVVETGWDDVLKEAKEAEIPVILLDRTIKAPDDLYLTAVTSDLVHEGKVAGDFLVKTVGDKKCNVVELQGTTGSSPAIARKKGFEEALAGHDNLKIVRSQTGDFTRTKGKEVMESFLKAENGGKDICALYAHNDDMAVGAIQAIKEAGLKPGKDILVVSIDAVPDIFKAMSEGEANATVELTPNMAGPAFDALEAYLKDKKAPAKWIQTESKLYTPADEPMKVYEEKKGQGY", "experiment": "FRET biosensor RL2376-CY, in vitro ligand titration", "format": "binding", "conditions": "pCYS (pLMB394), Tris-HCl pH 8.5, read-out: Kd", "experimental": "(§1) Ligand-induced FRET ratio changes of purified FRET biosensor were screened using a LS55 luminescence spectrometer (PerkinElmer Instruments). Excitation (ex.) was at (λ/slit width) 433/10 nm (CFP) or 549/10 nm (OFP). Emission (em.) was measured at 475/10 nm (CFP), 527/10 nm (YFP), 573/10 nm (OFP) and 644/10 nm (RFP). To confirm that Aphrodite and mKate2 were properly folded their fluorescence was individually tested by direct excitation at 510/6 nm and 588/10 nm respectively.\n(§2) Affinity constants (Kd) of FRET biosensors with specific ligands were established using a monochromator microplate reader (Safire, Tecan, Switzerland; CFP ex.: (λ\\bandwidth) 433/12 nm, em.: 475/12 nm; YFP em.: 527/12 nm. OFP ex.: 533/12 nm, em.: 563/12 nm; RFP em.: 615/12 nm). Proteins were diluted to give relative fluorescence units (RFU) in the detection range of 30,000 to 50,000 RFU at a gain of 90 to 100, and then were added to a dilution series (10^−3 to 10^−11 M) of ligand in Tris-HCl (pH 8.5, 50 mM). The change in relative emission intensities at 527/477 nm (YFP/CFP) or 615/563 nm (RFP/OFP) was used to determine Kd by fitting the titration curves to a single-site-binding isotherm: [drawing 1] with: R, ratio; Rapo, ratio without ligand; Rsat, ratio at saturation of ligand; n, number of equal binding sites; [L], ligand concentration. Non-linear regression was used to fit the curves using SigmaPlot 11 (Systat Software Inc.) (Hill equation, 4 Parameters, b = 1). All measurements were done in quadruplicate."}, "[2]": {"system": "RL2376-RO", "experiment": "RL2376-RO, FRET ratio change on ligand", "format": "binding, Rhizobium leguminosarum", "experimental": "as §1\nas §2, with “Non-linear regression was used to fit the curves using SigmaPlot 11 (Systat Software Inc.) (Hill equation, 4 Parameters, b = 1). All measurements were done in quadruplicate.” left out"}, "[3]": {"biological_target": "YtfQ", "set-up": "method as in PMID 19744923", "conditions": "YtfQ from E. coli; cited from earlier work"}, "[4]": {"system": "genes encoding the ABC-transporter (RL2376-9)", "conditions": "RL2376, Table 1; cited from earlier work"}},
  "data": [
    {"smiles": "O=C[C@H](O)[C@@H](O)[C@@H](O)[C@H](O)CO", "note": "[D-galactose]", "values": [
      {"measurement": "Kd", "setting": "[1]", "result": 5.3, "unit": "µM"},
      {"measurement": "change in FRET ratio on binding ligand", "setting": "[2]", "result": "no change in FRET ratio"},
      {"measurement": "Kd", "setting": "[3]", "result": "1.7 ± 0.3", "unit": "µM"},
      {"measurement": "Inducer of gene expression (fold change)", "setting": "[4]", "result": "D-galactose (2.6) fold"}
    ]}
  ]
}
